Among the data in patent publication US10220024B2, “Method of inhibiting cancer cell, method for detecting cancer cell, and system for detecting cancer cell” (CANON KABUSHIKI KAISHA, priority 2012, dated 2019) are activity values, retold here.

Read-outs that look alike come from different tables or passages of the source.

Test [1] deals with Human pancreas cancer cells, KLM-1. The test can be described thus: Cancer cell inhibitory (growth suppressive) action against pancreatic cancer cells, CellTiter-Glo viable cell count. As to conditions: KLM1, KLM-1, 10 μg/mL, 24 hours. In kind it is cell-based. The protocol:
Observation on cancer cell inhibitory (growth suppressive) action against pancreatic cancer cells Human pancreas cancer cells, KLM-1, were pre-cultured in RPMI1640 medium containing 10% FBS at 37° C. in a 5% CO2 ambient. Thereafter, 4,000 cells were seeded per well of a 96-well plate and further cultured for 24 hours. Subsequently, Compound (1) was added to the medium so as to obtain a final concentration of 10 μg/mL and cultured at 37° C. for 24 hours in a 5% CO2 ambient. The cultured cells were analyzed for viable cell count according to CellTiter-Glo Luminescent Cell Viability Assay (manufactured by Promega KK.). As a reference, the number of cells cultured in a medium containing a 0.1% dimethylsulfoxide solution (hereinafter, simply referred to as DMSO) in place of a medium containing Compound (1), in the aforementioned operation, was regarded (100%).
Viable cell count was analyzed in the same manner as in Experimental Example 1 except that Compound (1) of Experimental Example 1 was changed to compounds shown in Table 2.
Viable cell count was analyzed in the same manner as in Experimental Example 1 except that Compound (1) was changed to comparative compounds 1 to 4.
Viable cell counts of Experimental Examples 1 to 7 and Comparative Examples 1 to 4 were analyzed to obtain growth rates.
Evaluation of cancer cell inhibition against the pancreatic cancer cells (KLM-1) (growth suppression) was made based on the following criteria. Note that the growth rate in Examples herein is a numerical value of the number of cells obtained after culture relative to the number of cells (regarded as 100) grown in a medium containing 0.1% DMSO. Evaluation of cancer cell inhibition against the pancreatic cancer cells (KLM-1) was made as follows. • A: Cancer cell growth rate is less than 20% (cancer cell inhibitory (growth suppressive) effect is extremely high) • B: Cancer cell growth rate is 20% or more and less than 50% (cancer cell inhibitory (growth suppressive) effect is high) • C: Cancer cell growth rate is 50% or more (cancer cell inhibitory (growth suppressive) effect is low)

The test system of test [2] is K562 ALDH (−) fraction (general cancer cells). The test can be described thus: Cancer stem-cell selective inhibitory action against chronic myelocytic leukemia cells, ALDH (−) fraction, CellTiter-Glo. Format: cell-based, Human. As to conditions: Homo sapiens, 24 hours, relative to 0.1% DMSO, read-out: ALDH(−) (growth rate). The method in brief:
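ALDEFLUOR-sorted K562 fractions, ALDH (+) with ≥80% stem cells and ALDH (−), cultured 24 h at 37° C. with compound at the stated final concentrations. Viable cells counted by CellTiter-Glo luminescence. Growth is expressed relative to 0.1% DMSO control […], and scored as ALDH (+) and ALDH (+)/ALDH (−) categories.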

In the case of `COc1ccc(N2c3ccc(/C=C/C4=[N+](C)c5ccccc5C4(C)C)cc3C3CCCC32)cc1` (centres unmarked) [Compound 11], the activity at 10 µg/mL in test [1] (read-out: Evaluation (cancer cell growth rate)) was below 20%; in test [1] (relative to 0.1% DMSO (100), read-out: Cancer cell growth rate (%)), 2.6%. Further, in test [2] (0.05 μg/mL), the activity at 0.05 µg/mL came to 77%. Moreover, the activity at 0.5 µg/mL in test [2] (0.5 μg/mL) was found to be 49%. For the same molecule, in test [2] (1 μg/mL), the activity at 1 µg/mL turned out to be 22%.
